Structures are written as SMILES. Structures can show the parent of a compound that is named as a salt. Where two headings read alike, the source gives them in different places.

Test [1] addresses T1, α-1d adrenoreceptor (Rattus norvegicus, UniProt P23944).
T1 sequence (P23944 1-561): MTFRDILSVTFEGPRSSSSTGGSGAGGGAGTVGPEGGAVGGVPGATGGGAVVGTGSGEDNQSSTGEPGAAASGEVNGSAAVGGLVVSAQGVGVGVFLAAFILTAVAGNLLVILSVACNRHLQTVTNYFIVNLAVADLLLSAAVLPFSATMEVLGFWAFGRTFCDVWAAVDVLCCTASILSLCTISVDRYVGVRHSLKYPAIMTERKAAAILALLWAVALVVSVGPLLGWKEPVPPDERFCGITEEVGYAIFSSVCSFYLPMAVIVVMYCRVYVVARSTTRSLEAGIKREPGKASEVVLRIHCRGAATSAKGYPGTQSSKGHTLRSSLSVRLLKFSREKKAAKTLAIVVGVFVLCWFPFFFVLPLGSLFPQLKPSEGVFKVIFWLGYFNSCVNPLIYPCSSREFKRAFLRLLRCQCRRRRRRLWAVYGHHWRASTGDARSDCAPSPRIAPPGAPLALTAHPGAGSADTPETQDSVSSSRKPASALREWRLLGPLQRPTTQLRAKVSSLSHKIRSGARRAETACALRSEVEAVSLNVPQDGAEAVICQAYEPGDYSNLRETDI
Briefly: biochemical. Format: binding. In outline:
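Radioactivity counted by liquid scintillation after radioligand binding to membranes. Receptors: cloned α-1a, α-1b, α-1d stably expressed in LTK mouse fibroblasts (G418 selection, SV40 early promoter); rat submaxillary gland membranes for pharmacologically defined α-1A.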

For test [2], the target named is T2, α-1A adrenoreceptor (Rattus norvegicus, UniProt P43140).
T2 sequence (P43140 1-466): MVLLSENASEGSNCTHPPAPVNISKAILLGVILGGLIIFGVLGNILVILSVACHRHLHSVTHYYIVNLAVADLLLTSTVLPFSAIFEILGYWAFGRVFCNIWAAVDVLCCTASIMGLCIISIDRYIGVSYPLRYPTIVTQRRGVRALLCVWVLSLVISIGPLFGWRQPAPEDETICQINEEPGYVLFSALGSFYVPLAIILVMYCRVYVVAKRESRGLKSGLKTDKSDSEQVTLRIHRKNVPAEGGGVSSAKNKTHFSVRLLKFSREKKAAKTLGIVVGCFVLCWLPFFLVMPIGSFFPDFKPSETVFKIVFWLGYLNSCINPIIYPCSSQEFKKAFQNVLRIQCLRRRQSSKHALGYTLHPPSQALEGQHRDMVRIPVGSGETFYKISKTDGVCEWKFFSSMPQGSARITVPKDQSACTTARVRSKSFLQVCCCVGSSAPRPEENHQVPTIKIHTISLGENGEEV
Nature of the test: cell-based. As to conditions: phenylephrine-induced contraction, Schild plot; for Kb: read-out: In Vitro Characterization (pA2) Rat Vas (converted). The text has this: Functional assays indicative of pharmacologically defined α-1 adrenoreceptors were used to further characterize compounds. Inhibition of phenylephrine (PE)-induced contraction of canine prostate smooth muscle can be correlated with α-1A adrenoreceptor activation. […] For each of these models, agonist dose response curves were repeated against increasing concentrations of test agent to derive a Schild plot [log ([…]) against log (molarity of test agent)] to determine the pA2.

[3] abbreviates: [3H]-prazosin radioligand, cloned receptor in LTK cell membranes, read-out: Radioligand Binding (Ki, nM) 1d (Rat).

A word on the Ki: it is a measure of affinity in units of concentration, obtained from inhibition or displacement. For the compound `COc1cccc2c1[C@H]1CN(CCCCn3c(=O)[nH]c4c(sc5nccnc54)c3=O)C[C@@H]1CO2.Cl.Cl` (racemic) [Example 74, 3-[4-((±)-trans-9-Methoxy-1,2,3,3a,4,9b-hexahydro-[1]-benzopyrano[3,4-c]pyrrol-2-yl)butyl]-pyrazino[2',3':4,5]thieno[3,2-d]pyrimidine-2,4(1H,3H)-dione dihydrochloride], the Ki in test [1] (read-out: Radioligand Binding (Ki, nM) 1d (Rat)) worked out at 2.94 nM. Also, the Kb in test [2] was 0.794 nM.
In test [1], `COc1cc2nc(N3CCN(C(=O)C4COc5ccccc5O4)CC3)nc(N)c2cc1OC` (stereo not shown) [Doxazosin, doxazosin, reference compound] yielded an inhibition constant Ki of 0.231 nM. Moreover, the “In Vitro Characterization (pA2) Rat Vas” value in test [2] was found to be 8.69.
For the compound `COc1cccc2c1[C@@H]1CN(CCCCn3c(=O)[nH]c4c(sc5ncc(Cl)nc54)c3=O)C[C@H]1CO2` [Example 13, 3-[4-((3aS,9bR)-trans-9-Methoxy-1,2,3,3a,4,9b-hexahydro-[1]-benzopyrano[3,4-c]pyrrol-2-yl)butyl]-8-chloro-pyrazino[2',3':4,5]thieno[3,2-d]pyrimidine-2,4(1H,3H)-dione hydrochloride], the Ki in test [1] (setting [3]) was determined as 0.112 nM. In test [2], the Kb is 0.158 nM.
In the case of `COc1cccc2c1[C@@H]1CN(CCCCn3c(=O)[nH]c4c(sc5c(OC)ccnc54)c3=O)C[C@H]1CO2` [Example 17, 3-[4-((3aS,9bR)-trans-9-Methoxy-1,2,3,3a,4,9b-hexahydro-[1]-benzopyrano[3,4-c]pyrrol-2-yl)butyl]-6-methoxy-pyrido[2',3':4,5]thieno[3,2-d]pyrimidine-2,4(1H,3H)-dione dihydrochloride], in test [1] (setting [3]), the Ki amounted to 0.19 nM. Besides, the Kb in test [2] was 0.112 nM.
With `COc1cccc2c1[C@@H]1CN(CCCCn3c(=O)[nH]c4c(sc5c(OC)ccnc54)c3=O)C[C@@H]1CO2` [Example 18, 3-[4-((3aR,9bR)-cis-9-Methoxy-1,2,3,3a,4,9b-hexahydro[1]-benzopyrano[3,4-c]pyrrol-2-yl)butyl]-6-methoxy-pyrido[2',3':4,5]thieno[3,2-d]pyrimidine-2,4(1H,3H)-dione dihydrochloride], the Ki in test [1] (setting [3]) is 0.79 nM. Also, the Kb in test [2] was 0.741 nM.
Consider `COc1cccc2c1[C@@H]1CN(CCCCn3c(=O)[nH]c4c(sc5ccc(Cl)nc54)c3=O)C[C@H]1CO2` [Example 25, 3-[4-((3aS,9bR)-trans-9-Methoxy-1,2,3,3a,4,9b-hexahydro-[1]-benzopyrano[3,4-c]pyrrol-2-yl)butyl]-8-chloro-pyrido[2',3':4,5]thieno[3,2-d]pyrimidine-2,4(1H,3H)-dione dihydrochloride], for which, in test [1] (setting [3]), the Ki amounted to 0.039 nM. Also, the Kb in test [2] was 0.12 nM.
With `COc1ccc2sc3c(=O)n(CCCCN4C[C@H]5COc6cccc(OC)c6[C@@H]5C4)c(=O)[nH]c3c2n1` [Example 26, 3-[4-((3aS,9bR)-trans-9-Methoxy-1,2,3,3a,4,9b-hexahydro-[1]-benzopyrano[3,4-c]pyrrol-2-yl)butyl]-8-methoxy-pyrido[2',3':4,5]thieno[3,2-d]pyrimidine-2,4(1H,3H)-dione hydrochloride], the inhibitory constant (Ki) in test [1] (setting [3]) was 0.017 nM. In addition, in test [2], the Kb is 0.0457 nM.
With `COc1cccc2c1[C@@H]1CN(CCCCn3c(=O)[nH]c4c(sc5ccncc54)c3=O)C[C@@H]1CO2` [Example 28, 3-[4-((3aR,9bR)-cis-9-Methoxy-1,2,3,3a,4,9b-hexahydro-[1]-benzopyrano[3,4-c]pyrrol-2-yl)butyl]-pyrido[3',4':4,5]thieno[3,2-d]pyrimidine-2,4(1H,3H)-dione dihydrochloride], in test [1] (setting [3]), the Ki was found to be 0.195 nM. Besides, the Kb in test [2] was 0.407 nM.
In the case of `COc1cccc2c1[C@@H]1CN(CCCCn3c(=O)[nH]c4c(sc5cnccc54)c3=O)C[C@@H]1CO2` [Example 29, 3-[4-((3aR,9bR)-cis-9-Methoxy-1,2,3,3a,4,9b-hexahydro-[1]-benzopyrano[3,4-c]pyrrol-2-yl)butyl]-pyrido[4',3':4,5]thieno[3,2-d]pyrimidine-2,4(1H,3H)-dione dihydrochloride], the Ki in test [1] (setting [3]) turned out to be 0.466 nM. Also, in test [2], the Kb is 0.437 nM.
On to `COc1ccc2sc3c(=O)n(CCCCN4C[C@@H]5COc6cccc(OC)c6[C@@H]5C4)c(=O)[nH]c3c2n1` [Example 30, 3-[4-((3aR,9bR)-cis-9-Methoxy-1,2,3,3a,4,9b-hexahydro-[1]-benzopyrano[3,4-c]pyrrol-2-yl)butyl]-8-methoxy-pyrido[2',3':4,5]thieno[3,2-d]pyrimidine-2,4(1H,3H)-dione hydrochloride], for which the Ki in test [1] (setting [3]) stood at 0.222 nM. In addition, the Kb in test [2] is 0.251 nM.
Regarding `COc1cnc2sc3c(=O)n(CCCCN4C[C@@H]5COc6cccc(OC)c6[C@@H]5C4)c(=O)[nH]c3c2n1` [Example 31, 3-[4-((3aR,9bR)-cis-9-Methoxy-1,2,3,3a,4,9b-hexahydro-[1]-benzopyrano[3,4-c]pyrrol-2-yl)butyl]-8-methoxy-pyrazino[2',3':4,5]thieno[3,2-d]pyrimidine-2,4(1H,3H)-dione hydrochloride], the inhibitory constant (Ki) in test [1] (setting [3]) was 0.344 nM. For the same compound, the Kb in test [2] is 0.229 nM.
For `COc1cccc2c1[C@@H]1CN(CCCCn3c(=O)[nH]c4c(sc5ncccc54)c3=O)C[C@@H]1CO2` [Example 34, 3-[4-((3aR,9bR)-cis-9-Methoxy-1,2,3,3a,4,9b-hexahydro-[1]-benzopyrano[3,4-c]pyrrol-2-yl)butyl]-pyrido[3',2':4,5]thieno[3,2-d]pyrimidine-2,4(1H,3H)-dione hydrochloride], in that order: 0.339 nM and 0.589 nM.
Regarding `COc1cccc2c1[C@@H]1CN(CCCCn3c(=O)[nH]c4c(sc5nc(C)ccc54)c3=O)C[C@@H]1CO2` [Example 35, 3-[4-((3aR,9bR)-cis-9-Methoxy-1,2,3,3a,4,9b-hexahydro-[1]-benzopyrano[3,4-c]pyrrol-2-yl)butyl]-7-methyl-pyrido[3',2':4,5]thieno[3,2-d]pyrimidine-2,4(1H,3H)-dione hydrochloride], the Ki in test [1] (setting [3]) was 0.436 nM. In test [2], the Kb was 1.26 nM.
As to `COc1cccc2c1[C@@H]1CN(CCCCn3c(=O)[nH]c4c(sc5nccc(OC)c54)c3=O)C[C@@H]1CO2` [Example 36, 3-[4-((3aR,9bR)-cis-9-Methoxy-1,2,3,3a,4,9b-hexahydro-[1]-benzopyrano[3,4-c]pyrrol-2-yl)butyl]-9-methoxy-pyrido[3',2':4,5]thieno[3,2-d]pyrimidine-2,4(1H,3H)-dione hydrochloride], the Ki in test [1] (setting [3]) worked out at 0.36 nM. The Kb in test [2] was 0.537 nM.
On to `COc1cccc2c1[C@@H]1CN(CCCCn3c(=O)[nH]c4c(sc5ccc(Cl)nc54)c3=O)C[C@@H]1CO2` [Example 37, 3-[4-((3aR,9bR)-cis-9-Methoxy-1,2,3,3a,4,9b-hexahydro-[1]-benzopyrano[3,4-c]pyrrol-2-yl)butyl]-8-chloro-pyrido[2',3':4,5]thieno[3,2-d]pyrimidine-2,4(1H,3H)-dione hydrochloride], for which, in test [1] (setting [3]), the Ki is 0.195 nM. Further, the Kb in test [2] was 0.204 nM.
On to `COc1cccc2c1[C@@H]1CN(CCCCn3c(=O)[nH]c4c(sc5cc(Cl)cnc54)c3=O)C[C@@H]1CO2` [Example 38, 3-[4-((3aR,9bR)-cis-9-Methoxy-1,2,3,3a,4,9b-hexahydro-[1]-benzopyrano[3,4-c]pyrrol-2-yl)butyl]-7-chloro-pyrido[2',3':4,5]thieno[3,2-d]pyrimidine-2,4(1H,3H)-dione hydrochloride], for which the Ki in test [1] (setting [3]) was determined as 0.897 nM. Also, the Kb in test [2] was 0.282 nM.
For `COc1cccc2c1[C@@H]1CN(CCCCn3c(=O)[nH]c4c(sc5ncc(-c6ccccc6)nc54)c3=O)C[C@@H]1CO2` [Example 39, 3-[4-((3aR,9bR)-cis-9-Methoxy-1,2,3,3a,4,9b-hexahydro-[1]-benzopyrano[3,4-c]pyrrol-2-yl)butyl]-8-phenyl-pyrazino[2',3':4,5]thieno[3,2-d]pyrimidine-2,4(1H,3H)-dione hydrochloride], in that order: 2.15 nM and 0.162 nM.

The values above are taken from EP0942911B1, “BENZOPYRANOPYRROLE AND BENZOPYRANOPYRIDINE ALPHA-1 ADRENERGIC COMPOUNDS” (Abbott Laboratories, priority 1996, dated 1998).
